Format in all cases: cell-based
One assay deals with T1, ERα (Homo sapiens, UniProt P03372).
T1 construct: endogenous in cells; host or cells: MCF-7
T1 sequence (P03372 1-595): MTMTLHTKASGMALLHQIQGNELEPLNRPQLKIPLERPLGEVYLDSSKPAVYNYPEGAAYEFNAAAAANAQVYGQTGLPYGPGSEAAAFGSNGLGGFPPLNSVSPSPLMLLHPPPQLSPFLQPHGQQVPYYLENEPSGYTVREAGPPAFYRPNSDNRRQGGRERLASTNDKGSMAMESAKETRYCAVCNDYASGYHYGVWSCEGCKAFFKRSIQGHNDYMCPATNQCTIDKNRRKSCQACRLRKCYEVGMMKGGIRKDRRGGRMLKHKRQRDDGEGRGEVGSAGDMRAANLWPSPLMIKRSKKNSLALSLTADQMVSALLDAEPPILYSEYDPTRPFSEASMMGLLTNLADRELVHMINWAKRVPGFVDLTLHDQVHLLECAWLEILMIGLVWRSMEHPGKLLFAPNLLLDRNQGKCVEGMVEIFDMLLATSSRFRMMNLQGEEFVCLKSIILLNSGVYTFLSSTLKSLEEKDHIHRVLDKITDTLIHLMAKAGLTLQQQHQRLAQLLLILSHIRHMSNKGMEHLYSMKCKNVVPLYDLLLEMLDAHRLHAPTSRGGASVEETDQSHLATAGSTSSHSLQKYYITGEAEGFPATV
Nature of the assay: ER degradation in MCF-7 cells (Western blot). The following applies: for DC50: ER degradation, 24 hours; for Dmax: MCF7, Maximal ER degradation, read-out: Dmax. In a few lines:
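ERα levels assessed by Western blot (50 μg lysate protein, infrared scanner) after 24-hour exposure of MCF-7 cells to varied compound concentrations. Values reported as DC50, the concentration halving ER expression, and Dmax, the maximal ER reduction achieved across tested concentrations.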
Background: Immunoblotting shows a protein as a band on a membrane.

A further assay deals with T2, ER (Homo sapiens, UniProt P03372).
T2 construct: endogenous in cells; host or cells: T47d-kb-Luc (T47D stably transfected with a luciferase reporter gene only)
T2 sequence (P03372 1-595): T1 sequence (P03372 1-595)
Nature of the assay: ER antagonism (T47D ERE luciferase), T47d-kb-Luc cells. The note with it: read-out: IC50 (ER antagonistm). In a few lines: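 Five sample concentrations, each in quadruplicate and repeated in at least three experiments, were tested for blocking of estradiol activity. Values were expressed relative to the estradiol control. The cell system was the T47d-kb-Luc stable breast cancer line.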

The test system of assay [1] is MCF-7 breast cancer cells. Put plainly: MCF-7 proliferation / cell viability assay. The note with it: Homo sapiens, MCF7; MCF-7 proliferation with 0.1 nM 17-beta estradiol; read-out: IC50 (anti-proliferation). In a few lines: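 Survival ratio, with vehicle (DMSO) as 100%, was derived from Coulter-counted viable cell numbers. Cells were grown in 5% FBS DMEM and dosed for 5 days across six concentrations between 10^−10 M and 10^−5 M.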

A value given as a limit tells only on which side of the number the result lay.

This note sets out measurements from patent publication US20220348595A1, “COMPOUNDS AND METHODS FOR THE TARGETED DEGRADATION OF ESTROGEN RECEPTORS” (Endotarget Inc., priority 2021, published 2022).

For orientation: DC50 means the concentration at which degradation of the target reaches its halfway point. High values mean a less potent degrader, low ones a more potent degrader. As a reminder, the Dmax is the greatest extent of degradation seen. For the molecule `CC/C(=C(\c1ccc(B(O)O)cc1)c1ccc(N2CCN(CCN3CCN(c4ccc5c(c4)C(=O)N(C4CCC(=O)NC4=O)C5=O)CC3)CC2)cc1)c1ccccc1` (centres unmarked) [Compound 59, (Z)-(4-(1-(4-(4-(2-(4-(2-(2,6-dioxopiperidin-3-yl)-1,3-dioxoisoindolin-5-yl)piperazin-1-yl)ethyl)piperazin-1-yl)phenyl)-2-phenylbut-1-en-1-yl)phenyl)boronic acid], at ERα, the 50% degradation concentration (DC50) is 10 to 50 nM. Moreover, the Dmax at ERα was greater than 90%. Further, the IC50 (on ER; in assay [1]) was 10 to 50 nM each time.
`CC/C(=C(\c1ccc(OCCN2CCN(CC3CCN(c4ccc5c(c4)CN([C@@H]4CCC(=O)NC4=O)C5=O)CC3)CC2)cc1)c1ccc(B(O)O)cc1)c1ccccc1` [Compound 72]: on ERα, the 50% degradation concentration (DC50) was less than 10 nM and the greatest degradation seen (Dmax) was greater than 90%. Besides, the IC50 at ER is less than 10 nM. Besides, the IC50 in assay [1] is less than 10 nM.
Consider `CC/C(=C(/c1ccc(OCCN2CCC(CCN3CCN(c4ccc5c(c4)C(=O)N(C4CCC(=O)NC4=O)C5=O)CC3)CC2)cc1)c1ccc(B(O)O)cc1)c1ccccc1` (centres unmarked) [Compound 27, (Z)-(4-(1-(4-(2-(4-(2-(4-(2-(2,6-dioxopiperidin-3-yl)-1,3-dioxoisoindolin-5-yl)piperazin-1-yl)ethyl)piperidin-1-yl)ethoxy)phenyl)-2-phenylbut-1-en-1-yl)phenyl)boronic acid], for which, at ERα, the 50% degradation concentration (DC50) is less than 10 nM and the Dmax is greater than 90%. Further, the IC50 at ER is greater than 50 nM. For the same molecule, the IC50 in assay [1] lay in the range of 10 to 50 nM.
Consider `CC/C(=C(/c1ccc(B(O)O)cc1)c1ccc(N2CCN(CCCN3CCN(c4ccc5c(c4)CN(C4CCC(=O)NC4=O)C5=O)CC3)CC2)cc1)c1ccccc1` (centres unmarked) [Compound 46, (E)-(4-(1-(4-(4-(3-(4-(2-(2,6-dioxopiperidin-3-yl)-1-oxoisoindolin-5-yl)piperazin-1-yl)propyl)piperazin-1-yl)phenyl)-2-phenylbut-1-en-1-yl)phenyl)boronic acid], for which the DC50 at ERα is less than 10 nM. At ERα, the Dmax was greater than 90%. Moreover, the IC50 on ER was less than 10 nM; in assay [1] it was 10 to 50 nM.
The molecule `CC/C(=C(\c1ccc(O)cc1)c1ccc(OCCN2CCN(C(=O)N3CCC(N4CCN(c5ccc6c(c5)CN(C5CCC(=O)NC5=O)C6=O)CC4)CC3)CC2)cc1)c1ccccc1` (centres unmarked) [Compound 93, (Z)-3-(5-(4-(1-(4-(2-(4-(1-(4-hydroxyphenyl)-2-phenylbut-1-en-1-yl)phenoxy)ethyl)piperazine-1-carbonyl)piperidin-4-yl)piperazin-1-yl)-1-oxoisoindolin-2-yl)piperidine-2,6-dione] registered a 50% degradation concentration (DC50) at ERα of 10 to 50 nM. The Dmax on ERα was greater than 90%. Also, the IC50 (at ER; in assay [1]) was less than 10 nM in each case.
On to `CC/C(=C(\c1ccc(B(O)O)cc1)c1ccc(N2CCC(CN3CCN(c4ccc5c(c4)C(=O)N(C4CCC(=O)NC4=O)C5=O)CC3)CC2)cc1)c1ccccc1` (centres unmarked) [Compound 5, (Z)-(4-(1-(4-(4-((4-(2-(2,6-dioxopiperidin-3-yl)-1,3-dioxoisoindolin-5-yl)piperazin-1-yl)methyl)piperidin-1-yl)phenyl)-2-phenylbut-1-en-1-yl)phenyl)boronic acid], for which, on ERα, the 50% degradation concentration (DC50) was in the range of 10 to 50 nM and the Dmax was greater than 90%. Besides, the IC50 on ER fell in the range of 10 to 50 nM. The IC50 in assay [1] was greater than 50 nM.
On to `CC/C(=C(\c1ccc(O)cc1)c1ccc(OCCN2CCN(C(=O)N3CCN(c4ccc5c(c4)CN(C4CCC(=O)NC4=O)C5=O)CC3)CC2)cc1)c1ccccc1` (centres unmarked) [Compound 77], for which, on ERα, the DC50 is less than 10 nM and the greatest degradation seen (Dmax) was greater than 90%. Further, the IC50 on ER was less than 10 nM. The IC50 in assay [1] is less than 10 nM.
Take `CC/C(=C(\c1ccc(B(O)O)cc1)c1ccc(N2CCC(CCCN3CCN(c4ccc5c(c4)CN(C4CCC(=O)NC4=O)C5=O)CC3)CC2)cc1)c1ccccc1` (centres unmarked) [Compound 53, (Z)-(4-(1-(4-(4-(3-(4-(2-(2,6-dioxopiperidin-3-yl)-1-oxoisoindolin-5-yl)piperazin-1-yl)propyl)piperidin-1-yl)phenyl)-2-phenylbut-1-en-1-yl)phenyl)boronic acid]: at ERα, the DC50 is less than 10 nM and the Dmax is greater than 90%. For the same molecule, the IC50 on ER is less than 10 nM. In addition, the IC50 in assay [1] lay in the range of 10 to 50 nM.
